Measured values published in US11572590B2, “Methods for evaluating tumor cell spheroids using 3D microfluidic cell culture device” (Dana-Farber Cancer Institute, Inc., priority 2017, dated 2023).
Like-named read-outs stand apart in the source and are kept apart here.

What was measured:
Assay in all cases: SelectScreen Kinase Profiling, single point inhibition and IC50 for off-target kinases
Type in all cases: biochemical
off-target kinases [1] = target: off-target kinases (Homo sapiens, UniProt P53671); details: LIMK2, LanthaScreen Binding
off-target kinases (Homo sapiens, UniProt P53671), sequence (P53671 whole entry): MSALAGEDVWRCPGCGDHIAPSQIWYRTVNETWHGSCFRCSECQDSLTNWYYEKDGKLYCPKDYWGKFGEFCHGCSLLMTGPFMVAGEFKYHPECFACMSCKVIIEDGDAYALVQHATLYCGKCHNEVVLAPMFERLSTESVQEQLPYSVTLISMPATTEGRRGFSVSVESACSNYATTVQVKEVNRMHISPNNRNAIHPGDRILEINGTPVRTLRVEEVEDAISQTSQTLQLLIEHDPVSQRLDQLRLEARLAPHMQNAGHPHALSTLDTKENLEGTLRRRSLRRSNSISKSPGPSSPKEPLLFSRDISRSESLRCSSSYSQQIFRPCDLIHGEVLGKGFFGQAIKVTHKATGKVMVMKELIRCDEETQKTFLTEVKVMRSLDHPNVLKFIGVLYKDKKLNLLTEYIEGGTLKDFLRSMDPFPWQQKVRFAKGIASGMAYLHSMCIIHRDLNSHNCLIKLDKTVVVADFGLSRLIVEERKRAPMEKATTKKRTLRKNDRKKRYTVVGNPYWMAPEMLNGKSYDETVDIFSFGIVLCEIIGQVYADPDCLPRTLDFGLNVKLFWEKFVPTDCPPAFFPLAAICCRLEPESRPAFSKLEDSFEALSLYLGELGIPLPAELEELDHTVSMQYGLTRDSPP
Description: (§1) Biochemical single point inhibition and IC50 concentrations for TBK1, IKKε (IKBKE), and off-target kinases were determined at ThermoFisher Scientific using SelectScreen Kinase Profiling Services (Madison, Wis., USA) (Tables S4A and S4B-1-7). To determine cellular potency, the human colorectal cancer carcinoma cell line HCT116 (ATCC, Manassas, Va.) was maintained in T175 flasks in complete RPMI medium; RPMI 1640 supplemented with 10% FBS, 1× Penicillin-Streptomycin solution and 1×MEM (non-essential amino acids). HCT116 cells were grown to 90-95% confluency in T175 flasks containing complete RPMI medium and transfected in bulk using Lipofectamine 2000 (Invitrogen, Carlsbad, Calif.) with 70 μg of ISG54-luciferase reporter plasmid (Elim Biopharmaceuticals Inc., Hayward, Calif.). The reporter plasmid contains a luciferase gene expression cassette under the transcriptional regulation of the promoter of the human interferon stimulated gene 54 (ISG54). Transfection of the cells was allowed to take place for 6 hours, after which the cells were harvested by treatment with 0.25% trypsin EDTA (Corning Inc., Corning, N.Y.). Trypsinized cells were added to 384-well poly-d-lysine treated black clear bottom tissue culture assay plates (Greiner Bio-One GmbH, Kremsmünster, Austria) at a density of 20,000 cells/well in 80 μL of complete RPMI medium and incubated overnight. After 16-18 hours post-transfection, the assay plates were washed with PBS (Corning Inc., Corning, N.Y.), followed by addition of 80 μL/well of serum-free RPMI 1640 medium containing 1× Penicillin-Streptomycin solution, 1×MEM and 350 nL of DMSO or titrations of Compound 1. Compound 1 titrations were generated by 1.5-fold dilution steps in two overlapping serial dilution series to generate a 40-point compound dose range. After incubation at 37° C. for 1 hour, the cells were stimulated with Poly(I:C) (InvivoGen, San Diego, Calif.) at a final concentration of 15 μg/mL in Optimem media (Life Technologies, Rockville, Md.). The assay plates were incubated for 5 hours at 37° C., followed by addition of One-Glo luciferase firefly reagent (Promega, Madison, Wis.) at 1:1 volume/well and luminescence was measured in an EnVision Multilabel Plate Reader (PerkinElmer, Santa Clara, Calif.). The EC50 values were calculated from the fit of the dose-response curves to a four-parameter equation. All EC50 values represent geometric mean values of a minimum of four determinations.

off-target kinases [2] = target: T1, off-target kinases (Homo sapiens, UniProt Q8WTQ7); details: GRK7, ZLYTE, ATP Km app
T1 sequence (Q8WTQ7 1-553): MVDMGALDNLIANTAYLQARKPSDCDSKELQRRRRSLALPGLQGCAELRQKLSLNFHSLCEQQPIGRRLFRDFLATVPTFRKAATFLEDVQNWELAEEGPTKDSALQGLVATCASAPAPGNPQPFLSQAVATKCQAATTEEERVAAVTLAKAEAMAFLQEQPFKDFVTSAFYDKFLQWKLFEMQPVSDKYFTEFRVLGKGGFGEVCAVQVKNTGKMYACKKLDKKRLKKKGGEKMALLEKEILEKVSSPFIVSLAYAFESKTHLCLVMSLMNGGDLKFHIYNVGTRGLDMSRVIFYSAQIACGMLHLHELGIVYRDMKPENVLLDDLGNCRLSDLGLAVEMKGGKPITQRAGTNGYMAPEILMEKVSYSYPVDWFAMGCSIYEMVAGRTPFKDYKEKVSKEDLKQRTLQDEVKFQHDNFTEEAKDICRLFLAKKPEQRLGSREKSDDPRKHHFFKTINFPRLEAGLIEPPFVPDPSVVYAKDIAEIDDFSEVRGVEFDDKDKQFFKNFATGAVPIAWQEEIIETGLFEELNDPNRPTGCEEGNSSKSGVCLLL
Description: as §1

off-target kinases [3] = target: off-target kinases (Homo sapiens, UniProt P07949); details: RET, ATP Km app, ZLYTE
off-target kinases (Homo sapiens, UniProt P07949), sequence (P07949 29-1114): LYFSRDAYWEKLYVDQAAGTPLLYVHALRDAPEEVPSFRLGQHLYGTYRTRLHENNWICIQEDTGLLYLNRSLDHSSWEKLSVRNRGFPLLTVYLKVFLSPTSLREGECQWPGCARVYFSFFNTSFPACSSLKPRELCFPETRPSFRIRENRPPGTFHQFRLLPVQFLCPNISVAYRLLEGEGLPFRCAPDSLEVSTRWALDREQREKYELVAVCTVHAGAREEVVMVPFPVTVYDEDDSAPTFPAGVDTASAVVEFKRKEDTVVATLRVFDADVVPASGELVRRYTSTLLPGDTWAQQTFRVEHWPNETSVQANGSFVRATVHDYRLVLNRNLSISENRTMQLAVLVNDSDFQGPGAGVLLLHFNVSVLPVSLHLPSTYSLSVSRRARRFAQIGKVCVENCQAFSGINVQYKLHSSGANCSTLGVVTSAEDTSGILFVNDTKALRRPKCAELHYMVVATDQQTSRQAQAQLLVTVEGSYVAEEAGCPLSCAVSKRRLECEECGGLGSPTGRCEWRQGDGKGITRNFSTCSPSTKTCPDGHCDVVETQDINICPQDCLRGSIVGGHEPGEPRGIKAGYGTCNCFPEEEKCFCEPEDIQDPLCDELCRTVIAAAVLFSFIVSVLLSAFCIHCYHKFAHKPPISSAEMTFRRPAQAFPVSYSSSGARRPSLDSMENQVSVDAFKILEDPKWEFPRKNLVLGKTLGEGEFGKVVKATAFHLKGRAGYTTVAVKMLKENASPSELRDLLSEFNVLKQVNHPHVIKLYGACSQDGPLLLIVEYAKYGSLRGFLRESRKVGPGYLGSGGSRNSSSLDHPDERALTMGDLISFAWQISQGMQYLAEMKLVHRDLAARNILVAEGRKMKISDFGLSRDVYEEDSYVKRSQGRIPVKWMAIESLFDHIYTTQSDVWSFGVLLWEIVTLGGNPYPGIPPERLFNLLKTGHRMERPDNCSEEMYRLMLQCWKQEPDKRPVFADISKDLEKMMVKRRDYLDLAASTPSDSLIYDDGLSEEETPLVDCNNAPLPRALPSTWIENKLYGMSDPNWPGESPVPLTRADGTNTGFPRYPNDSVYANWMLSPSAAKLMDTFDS
Description: as §1

off-target kinases [4] = target: T2, off-target kinases (Homo sapiens, UniProt Q12866); details: MERTK (cMER), ZLYTE, ATP Km app
T2 sequence (Q12866 21-999): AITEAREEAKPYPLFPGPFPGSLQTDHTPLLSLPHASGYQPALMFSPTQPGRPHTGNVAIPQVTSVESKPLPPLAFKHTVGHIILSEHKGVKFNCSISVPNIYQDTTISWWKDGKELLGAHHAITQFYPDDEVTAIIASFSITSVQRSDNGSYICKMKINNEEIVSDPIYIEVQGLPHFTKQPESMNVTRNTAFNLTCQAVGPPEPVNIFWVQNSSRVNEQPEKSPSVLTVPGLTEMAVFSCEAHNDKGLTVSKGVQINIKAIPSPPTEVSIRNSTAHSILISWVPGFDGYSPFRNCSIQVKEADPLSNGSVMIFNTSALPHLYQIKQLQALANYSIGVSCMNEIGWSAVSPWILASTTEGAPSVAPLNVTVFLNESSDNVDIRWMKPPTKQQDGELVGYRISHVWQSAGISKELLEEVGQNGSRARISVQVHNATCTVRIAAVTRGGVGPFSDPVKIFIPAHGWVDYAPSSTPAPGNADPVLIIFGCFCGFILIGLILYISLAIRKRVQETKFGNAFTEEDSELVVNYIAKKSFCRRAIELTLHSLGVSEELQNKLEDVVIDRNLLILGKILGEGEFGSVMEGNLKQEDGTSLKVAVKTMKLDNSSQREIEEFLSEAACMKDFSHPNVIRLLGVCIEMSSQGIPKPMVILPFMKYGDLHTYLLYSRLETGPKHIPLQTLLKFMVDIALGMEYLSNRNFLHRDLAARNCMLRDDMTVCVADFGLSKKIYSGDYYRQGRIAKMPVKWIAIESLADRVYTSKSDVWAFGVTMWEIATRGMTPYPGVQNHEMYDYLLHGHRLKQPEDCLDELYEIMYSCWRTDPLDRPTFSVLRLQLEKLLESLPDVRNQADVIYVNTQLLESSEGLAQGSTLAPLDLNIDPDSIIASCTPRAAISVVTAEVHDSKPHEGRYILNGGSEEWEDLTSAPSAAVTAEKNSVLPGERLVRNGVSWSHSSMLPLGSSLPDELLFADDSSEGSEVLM
Description: as §1

off-target kinases [5] = target: off-target kinases (Homo sapiens, UniProt P00519, G250E); details: ABL1 G250E, ATP Km app, ZLYTE
Description: as §1

## N#Cc1cc(-c2ncnc(Nc3ccc(N4CCN(C5COC5)CC4)cc3)n2)ccc1OC1CCOCC1 [Compound 1, 5-(4-((4-(4-(oxetan-3-yl)piperazin-1-yl)phenyl)amino)-1,3,5-triazin-2-yl)-2-((tetrahydro-2H-pyran-4-yl)oxy)benzonitrile]
off-target kinases [1]; read-out: % Inhibition 1
  inhibition: 14%
off-target kinases [1]; read-out: % Inhibition 2
  inhibition: 19%
off-target kinases [1]; read-out: % Inhibition Avg
  inhibition: 17%
off-target kinases [2]; read-out: % Inhibition 1
  inhibition: 3%
off-target kinases [2]; read-out: % Inhibition 2
  inhibition: 5%
off-target kinases [2]; read-out: % Inhibition Avg
  inhibition: 4%
off-target kinases [3]; read-out: % Inhibition 1
  inhibition: 46%
off-target kinases [3]; read-out: % Inhibition 2
  inhibition: 42%
off-target kinases [3]; read-out: % Inhibition Avg
  inhibition: 44%
off-target kinases [4]; read-out: % Inhibition 1
  inhibition: 27%
off-target kinases [4]; read-out: % Inhibition 2
  inhibition: 22%
off-target kinases [4]; read-out: % Inhibition Avg
  inhibition: 24%
off-target kinases [5]; read-out: % Inhibition 1
  inhibition: 60%
off-target kinases [5]; read-out: % Inhibition 2
  inhibition: 61%
off-target kinases [5]; read-out: % Inhibition Avg
  inhibition: 60%
